Source: patent US20250161307A1, “PYRAZOLOPYRIMIDINES AS MODULATORS OF SPERMINE OXIDASE” (Janssen Pharmaceutica NV, priority 2022, published 2025)

Legend:
hPAOX = hPAOX (Homo sapiens (Human), UniProt Q6QHF9); experiment: Human PAOX assay (HyPerBlu chemiluminescent detection of hydrogen peroxide); type: biochemical; conditions: 60 pM recombinant PAOX, 20 μM N-acetylspermine substrate
Protocol: (§1) The direct detection of hydrogen peroxide produced from the enzymatic reaction of hSMOX or hPAOX in a biochemical assay format was measured using HyPerBlu (Lumigen, Southfield, MI), a small molecule boronate probe that reacts with hydrogen peroxide to generate a chemiluminescent signal. Inhibition of hSMOX or hPAOX enzyme results in a decrease in luminescence.
The hPAOX assay was run and the data analyzed similarly to the hSMOX assay described above, except the reactions contained 60 pM recombinant PAOX with an N-terminal His tag expressed from sf9 insect cells and used 20 μM N-acetylspermine as the substrate.

SMOX = SMOX (Homo sapiens (Human), UniProt Q9NWM0); experiment: Human SMOX assay (HyPerBlu chemiluminescent detection of hydrogen peroxide); type: biochemical; conditions: 2.5 nM full length hSMOX, spermine substrate, 1 h at room temperature, luminescence read; read-out: SMOx_IC50
Protocol: as §1
Test compounds (75 nL) dissolved in DMSO were added to a 384-well white assay plate (Greiner Bio-one, catalog #784075) using an ECHO Acoustic Dispenser (Labcyte). Each compound was serially diluted 3-fold in DMSO to prepare an 11-point dose response curve (columns 1-22). Column 23 and 24 contained 75 nL of 2 mM chlorhexidine and DMSO, respectively, to represent the 100% inhibited versus the neutral control reactions.
Subsequently, 3 μL/well of the substrate solution prepared in assay buffer (10 mM Hepes, pH 7.4, 150 mM NaCl, 1 mM EGTA, 0.01% Pluronic F-127, 0.05% ovalbumin) was dispensed into the assay plate followed by 3 μL/well of full length hSMOX enzyme with an N-terminal His tag from E. coli prepared in assay buffer to initiate the reactions. After a 1 h incubation at room temperature, 6 μL/well of HyPerBlu was added. After a 30 min incubation, the hydrogen peroxide product generated from the hSMOX reactions was measured using an endpoint luminescence read on the PHERAStar FS/FSX microplate reader (BMG LABTECH).
The final assay conditions included 10 mM Hepes, pH 7.4, 150 mM NaCl, 1 mM EGTA, 0.01% Pluronic F-127, 0.05% ovalbumin, 2.5 nM hSMOX, 30 µM spermine, and 1.25% DMSO.
Dose-response curves were fit and compound IC50 values were determined using Genedata Screener (Genedata AG).

hPAOX, sequence (Q6QHF9 whole entry): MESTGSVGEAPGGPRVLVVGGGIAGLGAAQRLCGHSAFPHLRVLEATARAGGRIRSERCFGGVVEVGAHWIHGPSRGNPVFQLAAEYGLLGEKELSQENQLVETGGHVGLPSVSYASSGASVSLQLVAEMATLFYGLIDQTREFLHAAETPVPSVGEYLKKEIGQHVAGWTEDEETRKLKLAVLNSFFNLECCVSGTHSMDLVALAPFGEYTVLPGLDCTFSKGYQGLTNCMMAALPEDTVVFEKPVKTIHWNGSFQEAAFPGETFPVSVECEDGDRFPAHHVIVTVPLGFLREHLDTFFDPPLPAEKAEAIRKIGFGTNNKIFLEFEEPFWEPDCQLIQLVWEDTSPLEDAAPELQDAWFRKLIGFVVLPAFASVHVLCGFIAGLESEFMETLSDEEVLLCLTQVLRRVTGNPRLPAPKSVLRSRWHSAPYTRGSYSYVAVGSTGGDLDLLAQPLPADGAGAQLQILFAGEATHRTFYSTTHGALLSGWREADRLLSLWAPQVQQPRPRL
SMOX, sequence (Q9NWM0 whole entry): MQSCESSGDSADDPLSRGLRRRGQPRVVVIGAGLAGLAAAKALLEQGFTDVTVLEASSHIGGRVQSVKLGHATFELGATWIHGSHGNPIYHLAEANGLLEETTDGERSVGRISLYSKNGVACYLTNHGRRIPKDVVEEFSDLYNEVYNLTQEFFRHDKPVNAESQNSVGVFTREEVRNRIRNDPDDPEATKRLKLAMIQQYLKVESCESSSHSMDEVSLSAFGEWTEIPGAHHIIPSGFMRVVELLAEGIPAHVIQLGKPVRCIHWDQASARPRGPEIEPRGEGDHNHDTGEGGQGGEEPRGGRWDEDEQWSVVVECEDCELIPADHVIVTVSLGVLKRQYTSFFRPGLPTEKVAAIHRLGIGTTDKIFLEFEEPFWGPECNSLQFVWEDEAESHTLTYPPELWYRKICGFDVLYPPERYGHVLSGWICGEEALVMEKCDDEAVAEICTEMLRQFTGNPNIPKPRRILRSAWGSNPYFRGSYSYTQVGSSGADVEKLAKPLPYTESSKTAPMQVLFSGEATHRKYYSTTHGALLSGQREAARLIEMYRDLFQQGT

Compound | IC50 (hPAOX) [nM] | IC50 (SMOX) [nM]
CN1CC(NC(=O)c2cc3nc(-c4ccccc4C(F)(F)F)cc(-c4ccccc4)n3n2)C1 [Example 103, N-(1-methylazetidin-3-yl)-7-phenyl-5-(2-(trifluoromethyl)phenyl)pyrazolo[1,5-a]pyrimidine-2-carboxamide] | 547 | 3120
CN1CC(NC(=O)c2cc3nc(-c4ccccn4)cc(-c4ccccc4)n3n2)C1 [Example 102, N-(1-methylazetidin-3-yl)-7-phenyl-5-(pyridin-2-yl)pyrazolo[1,5-a]pyrimidine-2-carboxamide] | 10000 | 1550
CN1CC(NC(=O)c2cc3nc(-c4cccc(F)c4)cc(-c4ccccc4)n3n2)C1 [Example 105, 5-(3-fluorophenyl)-N-(1-methylazetidin-3-yl)-7-phenylpyrazolo[1,5-a]pyrimidine-2-carboxamide] | 666 | 114
CN1CC(NC(=O)c2cc3nc(N4CCCCC4)cc(-c4ccccc4)n3n2)C1 [Example 99, N-(1-methylazetidin-3-yl)-7-phenyl-5-(piperidin-1-yl)pyrazolo[1,5-a]pyrimidine-2-carboxamide] | 7080 | 7710
O=C(NCCCn1ccnc1)c1cc2nc(-c3ccccc3)cc(NC3CCCC3)n2n1 [Example 65, N-(3-(1H-imidazol-1-yl)propyl)-7-(cyclopentylamino)-5-phenylpyrazolo[1,5-a]pyrimidine-2-carboxamide] | 2450 | 595
O=C(NC1CCN(Cc2ccccc2)C1)c1cc2nc(-c3ccccc3)cc(-c3ccccc3)n2n1 (centres unmarked) [Example 16, N-(1-Benzylpyrrolidin-3-yl)-5,7-diphenylpyrazolo[1,5-a]pyrimidine-2-carboxamide] | 4360 | 412
CC(C)N1CCC(NC(=O)c2cc3nc(-c4ccccc4)cc(-c4ccccc4)n3n2)C1 (centres unmarked) [Example 4, N-(1-Isopropylpyrrolidin-3-yl)-5,7-diphenylpyrazolo[1,5-a]pyrimidine-2-carboxamide] | 8720 | 599
Cc1c(C(=O)NC2CN(C)C2)nn2c(-c3ccccc3)cc(-c3ccccc3)nc12 [Example 50, 3-Methyl-N-(1-methylazetidin-3-yl)-5,7-diphenylpyrazolo[1,5-a]pyrimidine-2-carboxamide] | 3130 | 110
CN1CC[C@@H](NC(=O)c2cc3nc(-c4ccccc4)cc(-c4ccccc4)n3n2)C1 [Example 8, (R)—N-(1-Methylpyrrolidin-3-yl)-5,7-diphenylpyrazolo[1,5-a]pyrimidine-2-carboxamide] | 10700 | 393
CN1CC(NC(=O)c2cc3nc(N4CCC4)cc(-c4ccccc4)n3n2)C1 [Example 100, 5-(azetidin-1-yl)-N-(1-methylazetidin-3-yl)-7-phenylpyrazolo[1,5-a]pyrimidine-2-carboxamide] | > 31200 | 4010
O=C(NCCCn1ccnc1)c1cc2nc(-c3ccccc3)cc(C3CCC3)n2n1 [Example 109, N-(3-(1H-imidazol-1-yl)propyl)-7-cyclobutyl-5-phenylpyrazolo[1,5-a]pyrimidine-2-carboxamide] | 470 | 956
O=C(NCCCn1ccnc1)c1cc2nc(-c3ccc(C(F)(F)F)cc3)cc(-c3ccccc3)n2n1 [Example 101, N-(3-(1H-imidazol-1-yl)propyl)-7-phenyl-5-(4-(trifluoromethyl)phenyl)pyrazolo[1,5-a]pyrimidine-2-carboxamide] | 181 | 72
O=C(NCC1CCCN1)c1cc2nc(-c3ccccc3)cc(-c3ccccc3)n2n1 (centres unmarked) [Example 117, 5,7-diphenyl-(pyrrolidin-2-ylmethyl)pyrazolo[1,5-a]pyrimidine-2-carboxamide] | 197 | 142
O=C(NCCCn1ccnc1)c1cc2nc(-c3ccccc3)cc(-c3cccc(O)c3)n2n1 [Example 87, N-(3-(1H-imidazol-1-yl)propyl)-7-(3-hydroxyphenyl)-5-phenylpyrazolo[1,5-a]pyrimidine-2-carboxamide] | 387 | 303
O=C(NCCCn1ccnc1)c1cc2nc(-c3ccccc3)cc(C3CCCC3)n2n1 [Example 108, N-(3-(1H-imidazol-1-yl)propyl)-7-cyclopentyl-5-phenylpyrazolo[1,5-a]pyrimidine-2-carboxamide] | 840 | 305
O=C(NCCCCN1CCCC1)c1cc2nc(-c3ccccc3)cc(-c3ccccc3)n2n1 [Example 30, 5,7-Diphenyl-N-(4-(pyrrolidin-1-yl)butyl)pyrazolo[1,5-a]pyrimidine-2-carboxamide] | 129 | 297

Compound | IC50 (hPAOX) [nM] | IC50 (SMOX) [nM]
O=C(NCCCc1ccncc1)c1cc2nc(-c3ccccc3)cc(-c3ccccc3)n2n1 [Example 9, 5,7-Diphenyl-N-(3-(pyridin-4-yl)propyl)pyrazolo[1,5-a]pyrimidine-2-carboxamide] | 1120 | 195
CN1CCC(NC(=O)c2cc3nc(-c4ccccc4)cc(N4CCCCC4)n3n2)CC1 [Example 74, N-(1-methylpiperidin-4-yl)-5-phenyl-7-(piperidin-1-yl)pyrazolo[1,5-a]pyrimidine-2-carboxamide] | 9830 | 17700
O=C(NCCCN1CCOCC1)c1cc2nc(-c3ccccc3)cc(-c3ccccc3)n2n1 [Example 13, N-(3-Morpholinopropyl)-5,7-diphenylpyrazolo[1,5-a]pyrimidine-2-carboxamide] | 5260 | 604
O=C(NCCCn1ccnc1)c1cc2nc(-c3ccccc3)cc(NC3CCC3)n2n1 [Example 64, N-(3-(1H-Imidazol-1-yl)propyl)-7-(cyclobutylamino)-5-phenylpyrazolo[1,5-a]pyrimidine-2-carboxamide] | 1460 | 779
CN1CC(CNC(=O)c2cc3nc(-c4ccccc4)cc(-c4ccccc4)n3n2)C1 [Example 29, N-((1-Methylazetidin-3-yl)methyl)-5,7-diphenylpyrazolo[1,5-a]pyrimidine-2-carboxamide] | 1760 | 480
O=C(NCCN1CCOCC1)c1cc2nc(-c3ccccc3)cc(-c3ccccc3)n2n1 [Example 122, N-(2-morpholinoethyl)-5,7-diphenylpyrazolo[1,5-a]pyrimidine-2-carboxamide] | > 31200 | 20600
CN1CC(NC(=O)c2cc3nc(-c4ccccc4)cc(-c4ncccn4)n3n2)C1 [Example 93, N-(1-methylazetidin-3-yl)-5-phenyl-7-(pyrimidin-2-yl)pyrazolo[1,5-a]pyrimidine-2-carboxamide] | 643 | 996
CN(CCCNC(=O)c1cc2nc(-c3ccccc3)cc(-c3ccccc3)n2n1)c1ccccn1 [Example 32, N-(3-(Methyl(pyridin-2-yl)amino)propyl)-5,7-diphenylpyrazolo[1,5-a]pyrimidine-2-carboxamide] | 6220 | 850
CN1CCC(NC(=O)c2cc3nc(-c4ccccc4)cc(-c4ccccc4)n3n2)CC1 [Example 17, N-(1-Methylpiperidin-4-yl)-5,7-diphenylpyrazolo[1,5-a]pyrimidine-2-carboxamide] | 10400 | 606
O=C(NC1CCCC(n2ccnc2)C1)c1cc2nc(-c3ccccc3)cc(-c3ccccc3)n2n1 (centres unmarked) [Example 37, N-(3-(1H-Imidazol-1-yl)cyclohexyl)-5,7-diphenylpyrazolo[1,5-a]pyrimidine-2-carboxamide] | 12600 | 878
NCCCNC(=O)c1cc2nc(-c3ccccc3)cc(-c3ccccc3)n2n1 [Example 116, N-(3-aminopropyl)-5,7-diphenylpyrazolo[1,5-a]pyrimidine-2-carboxamide] | 119 | 296
O=C(NCCc1ccccc1)c1cc2nc(-c3ccccc3)cc(-c3ccccc3)n2n1 [Example 40, N-Phenethyl-5,7-diphenylpyrazolo[1,5-a]pyrimidine-2-carboxamide] | > 31200 | > 31200
O=C(NCCCn1ccnc1)c1cc2nc(-c3ccccc3)cc(N3CCCC3)n2n1 [Example 66, N-(3-(1H-imidazol-1-yl)propyl)-5-phenyl-7-(pyrrolidin-1-yl)pyrazolo[1,5-a]pyrimidine-2-carboxamide] | 2500 | 395
CN1CC(NC(=O)c2cc3nc(N4CCCC4)cc(-c4ccccc4)n3n2)C1 [Example 98, N-(1-methylazetidin-3-yl)-7-phenyl-5-(pyrrolidin-1-yl)pyrazolo[1,5-a]pyrimidine-2-carboxamide] | > 31200 | 4590
O=C(NCCCn1ccnc1)c1cc2nc(-c3ccccc3)cc(-c3cccnc3)n2n1 [Example 96, N-(3-(1H-imidazol-1-yl)propyl)-5-phenyl-7-(pyridin-3-yl)pyrazolo[1,5-a]pyrimidine-2-carboxamide] | 6910 | 1250
